Biological target: T1, human CXCR3 (N-delta 4) (Homo sapiens, UniProt P49682)
T1 construct: CD8 leader; Flag tag; expressed in transfected cells; membranes used
T1 sequence (P49682 5-368 limits assumed): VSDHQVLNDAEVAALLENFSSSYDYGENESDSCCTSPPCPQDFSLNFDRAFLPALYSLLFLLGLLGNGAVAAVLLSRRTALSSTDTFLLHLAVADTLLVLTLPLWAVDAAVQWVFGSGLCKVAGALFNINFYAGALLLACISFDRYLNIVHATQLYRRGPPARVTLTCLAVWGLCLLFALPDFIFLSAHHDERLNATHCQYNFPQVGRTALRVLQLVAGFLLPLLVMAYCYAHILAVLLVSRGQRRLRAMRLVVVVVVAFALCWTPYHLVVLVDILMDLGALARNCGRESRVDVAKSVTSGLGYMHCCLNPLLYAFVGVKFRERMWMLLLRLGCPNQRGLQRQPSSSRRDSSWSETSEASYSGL
Test: Human CXCR3 (N-delta 4) scintillation proximity assay (SPA), [125I] IP-10 binding
Settings: IC50 rating; Ba/F3-hCXCR3 (N-delta 4) membranes, 25 pM [125I] IP-10
Source text: The inventive compounds can readily be evaluated to determine activity at the CXCR3 receptors by known methods, such as, for example, development of a human CXCR3 (N-delta 4) Binding Assay.
Cloning and expression of human CXCR3 (N-delta 4):
The DNA encoding human CXCR3 was cloned by PCR using human genomic DNA (Promega, Madison, Wis.) as a template. The PCR primers were designed based on the published sequence of human orphan receptor GPR9 (1) with incorporated restriction sites, a Kozak consensus sequence, CD8 leader and Flag tag. The PCR product was subcloned into the mammalian expression vector pME18Sneo, a derivative of the SR-alpha expression vector (designated as pME18Sneo-hCXCR3 (N-delta 4).
IL-3-dependent mouse pro-B cells Ba/F3 were transfected by electroporation in 0.4 ml Dulbecco's PBS containing 4×10^6 cells with 20 μg of pME18Sneo-hCXCR3 (N-delta 4) plasmid DNA. Cells were pulsed at 400 Volts, 100 OHMs, 960 μFd. The transfected cells were under selection with 1 mg/ml G418 (Life Technologies, Gaithersburg, Md.). […] IP-10 (NEN Life Science Products, Boston, Mass.).
Preparation of Ba/F3-hCXCR3 (N-delta 4) membranes:
Ba/F3 cells expressing human CXCR3 (N-delta 4) were pelleted and resuspended in the lysis buffer containing 10 mM HEPES, pH 7.5 and Complete® protease inhibitors (1 tablet per 100 ml) (Boehringer Mannheim, Indianapolis, Ind.) at a cell density of 20×10^6 cells per ml. […] Large cellular debris was removed by centrifugation at 1,000×g. Cell membrane in the supernatant was sedimented at 100,000×g. The membrane was resuspended in the lysis buffer supplemented with 10% sucrose and stored at −80° C. Total protein concentration of the membrane was determined by BCA method from Pierce (Rockford, Ill.).
Human CXCR3 (N-delta 4) scintillation proximity assay (SPA):
The beads were spun down, washed once, resuspended in the binding buffer and transferred to a 96-well Isoplate (Wallac, Gaithersburg, Md.). […] IP-10 with tested compounds in a series of titration were added to start the reaction.

SMILES	IC50 [nM]
O=C(NCc1cccc(Cl)c1)c1cnc(N2CCN(C3CCN(Cc4ccc(Cl)cc4)CC3)CC2)c(Cl)c1 [compound 84]	> 100
O=C(NCc1ccc(C(F)(F)F)cc1)c1cnc(N2CCN(C3CCN(Cc4ccc(Cl)cc4)CC3)CC2)c(Cl)c1 [compound 85]	> 100
N#Cc1ccc(CN2CCC(N3CCN(c4ncc(C(=O)NCc5ccc(F)cc5F)cc4Cl)CC3)CC2)cc1 [compound 86]	> 100
O=C(NCc1ccc(Cl)cc1)c1cnc(N2CCN(C3CCN(Cc4ccc(F)cc4F)CC3)CC2)c(Cl)c1 [compound 87]	> 100
O=C(NCc1ccc(Cl)cc1F)c1cnc(N2CCN(C3CCN(Cc4ccc(F)cc4F)CC3)CC2)c(Cl)c1 [compound 88]	> 100
O=C(NCc1cc(Cl)cc(Cl)c1)c1cnc(N2CCN(C3CCN(Cc4ccc([N+](=O)[O-])cc4)CC3)CC2)c(Cl)c1 [compound 89]	> 100
O=C(NCc1ccc(Cl)c(Cl)c1)c1cnc(N2CCN(C3CCN(Cc4ccc(F)cc4F)CC3)CC2)c(Cl)c1 [compound 90]	> 100
O=C(NCc1cccc(F)c1)c1cnc(N2CCN(C3CCN(Cc4ccc(F)c(F)c4)CC3)CC2)c(Cl)c1 [compound 91]	> 100
O=C(NCc1ccc(C(F)(F)F)cc1)c1cnc(N2CCN(C3CCN(Cc4ccc(F)c(F)c4)CC3)CC2)c(Cl)c1 [compound 92]	> 100
O=C(NCc1ccc(Cl)cc1F)c1cnc(N2CCN(C3CCN(Cc4ccc(Cl)c(F)c4)CC3)CC2)c(Cl)c1 [compound 93]	> 100
O=C(NCc1cccc(F)c1)c1cnc(N2CCN(C3CCN(Cc4ccc([N+](=O)[O-])cc4)CC3)CC2)c(Cl)c1 [compound 94]	25 to 100
O=C(NCc1cccc(F)c1)c1cnc(N2CCN(C3CCN(Cc4ccc(Cl)cc4)CC3)CC2)c(Cl)c1 [compound 95]	25 to 100
O=C(NCc1ccc(F)c(F)c1)c1cnc(N2CCN(C3CCN(Cc4ccc(F)cc4F)CC3)CC2)c(Cl)c1 [compound 96]	25 to 100
O=C(NCc1ccc(F)cc1F)c1cnc(N2CCN(C3CCN(Cc4ccc(Cl)cc4)CC3)CC2)c(Cl)c1 [compound 97]	25 to 100
O=C(NCc1ccc(C(F)(F)F)cc1)c1cnc(N2CCN(C3CCN(Cc4ccc([N+](=O)[O-])cc4)CC3)CC2)c(Cl)c1 [compound 98]	25 to 100
O=C(NCc1ccc(Br)cc1)c1cnc(N2CCN(C3CCN(Cc4ccc(F)c(F)c4)CC3)CC2)c(Cl)c1 [compound 99]	25 to 100
O=C(NCc1cccc(F)c1)c1cnc(N2CCN(C3CCN(Cc4ccc(Br)cc4)CC3)CC2)c(Cl)c1 [compound 100]	25 to 100
N#Cc1ccc(C(=O)N2CCC(N3CCN(c4ncc(C(=O)NCc5ccc(Cl)cc5)cc4Cl)CC3)CC2)cc1 [compound 101]	25 to 100
O=C(NCc1ccc(F)c(Cl)c1)c1cnc(N2CCN(C3CCN(Cc4ccc(F)cc4F)CC3)CC2)c(Cl)c1 [compound 102]	25 to 100
COc1ccc(CN2CCC(N3CCN(c4ncc(C(=O)NCc5ccc(Cl)cc5)cc4Cl)CC3)CC2)cc1 [compound 103]	25 to 100
CC(NC(=O)c1cnc(N2CCN(C3CCN(Cc4ccc(Cl)cc4)CC3)CC2)c(Cl)c1)c1ccccc1 (stereo not drawn) [compound 104]	25 to 100
O=C(NCc1ccc(Cl)cc1F)c1cnc(N2CCN(C3CCN(Cc4ccc(Br)cc4)CC3)CC2)c(Cl)c1 [compound 105]	25 to 100
O=C(NCc1ccc(F)cc1)c1cnc(N2CCN(C3CCN(Cc4ccc(F)c(F)c4)CC3)CC2)c(Cl)c1 [compound 106]	25 to 100
N#Cc1ccc(CN2CCC(N3CCN(c4ncc(C(=O)NCc5ccc(F)c(Cl)c5)cc4Cl)CC3)CC2)cc1 [compound 107]	25 to 100
O=C(NCc1ccc(F)c(Cl)c1)c1cnc(N2CCN(C3CCN(Cc4ccc(Br)cc4)CC3)CC2)c(Cl)c1 [compound 108]	25 to 100
O=C(NCc1ccc(Br)cc1)c1cnc(N2CCN(C3CCN(Cc4ccc(F)cc4)CC3)CC2)c(Cl)c1 [compound 109]	25 to 100
COc1ccc(CN2CCC(N3CCN(c4ncc(C(=O)NCc5ccc(Cl)cc5F)cc4Cl)CC3)CC2)cc1 [compound 111]	25 to 100

SMILES	IC50 [nM]
O=C(NCCOc1ccccc1)c1cnc(N2CCN(C3CCN(Cc4ccc([N+](=O)[O-])cc4)CC3)CC2)c(Cl)c1 [compound 112]	25 to 100
O=C(NCc1ccc(F)cc1)c1cnc(N2CCN(C3CCN(Cc4ccc(Br)cc4)CC3)CC2)c(Cl)c1 [compound 113]	25 to 100
N#Cc1ccc(CN2CCC(N3CCN(c4ncc(C(=O)NCc5ccc(Br)cc5)cc4Cl)CC3)CC2)cc1 [compound 114]	25 to 100
O=C(NCc1ccc(Cl)c(Cl)c1)c1cnc(N2CCN(C3CCN(Cc4ccc(Cl)c(F)c4)CC3)CC2)c(Cl)c1 [compound 115]	25 to 100
COc1ccc(CN2CCC(N3CCN(c4ncc(C(=O)NCc5ccc(F)c(F)c5)cc4Cl)CC3)CC2)cc1 [compound 116]	25 to 100
COc1ccc(CN2CCC(N3CCN(c4ncc(C(=O)NCc5ccc(F)c(Cl)c5)cc4Cl)CC3)CC2)cc1 [compound 117]	25 to 100
O=C(NCc1cccc(Cl)c1)c1cnc(N2CCN(C3CCN(Cc4ccc(F)c(F)c4)CC3)CC2)c(Cl)c1 [compound 118]	25 to 100
O=C(NCc1ccc(Cl)cc1Cl)c1cnc(N2CCN(C3CCN(Cc4ccc(F)cc4)CC3)CC2)c(Cl)c1 [compound 119]	25 to 100
N#Cc1ccc(CN2CCC(N3CCN(c4ncc(C(=O)NCc5ccc(Cl)cc5F)cc4Cl)CC3)CC2)cc1 [compound 120]	25 to 100
O=C(NCc1ccc(F)c(F)c1)c1cnc(N2CCN(C3CCN(Cc4ccc(Cl)c(F)c4)CC3)CC2)c(Cl)c1 [compound 121]	25 to 100
CC1CN(C2CCN(Cc3ccc(Cl)cc3)CC2)CCN1c1ncc(C(=O)NCc2ccc(Cl)c(Cl)c2)cc1Cl (stereo not drawn) [compound 122]	25 to 100
O=C(NCCOc1ccccc1)c1cnc(N2CCN(C3CCN(Cc4ccc(Cl)c(F)c4)CC3)CC2)c(Cl)c1 [compound 123]	25 to 100
COc1ccc(CN2CCC(N3CCN(c4ncc(C(=O)NCc5ccc(Cl)c(Cl)c5)cc4Cl)CC3)CC2)cc1 [compound 124]	25 to 100
O=C(NCc1ccc(Cl)cc1F)c1cnc(N2CCN(C3CCN(Cc4ccc(Cl)cc4)CC3)CC2)c(Cl)c1 [compound 125]	25 to 100
N#Cc1ccc(CN2CCC(N3CCN(c4ncc(C(=O)NCc5ccc(Cl)cc5)cc4Cl)CC3)CC2)cc1 [compound 126]	25 to 100
O=C(NCc1ccc(F)cc1F)c1cnc(N2CCN(C3CCN(Cc4ccc(Cl)c(F)c4)CC3)CC2)c(Cl)c1 [compound 127]	25 to 100
O=C(NCc1ccc(F)cc1F)c1cnc(N2CCN(C3CCN(Cc4ccc([N+](=O)[O-])cc4)CC3)CC2)c(Cl)c1 [compound 128]	25 to 100
N#Cc1ccc(CN2CCC(N3CCN(c4ncc(C(=O)NCc5ccc(F)c(F)c5)cc4Cl)CC3)CC2)cc1 [compound 129]	25 to 100
CC1CN(C2CCN(Cc3ccc(Cl)cc3)CC2)CCN1c1ncc(C(=O)NCCOc2ccccc2)cc1Cl (stereo not drawn) [compound 130]	25 to 100
O=C(NCc1ccc(Br)cc1)c1cnc(N2CCN(C3CCN(Cc4ccc([N+](=O)[O-])cc4)CC3)CC2)c(Cl)c1 [compound 131]	25 to 100
O=C(NCc1ccc(F)cc1F)c1cnc(N2CCN(C3CCN(Cc4ccc(F)c(F)c4)CC3)CC2)c(Cl)c1 [compound 132]	25 to 100
O=C(NCc1ccc(Cl)cc1Cl)c1cnc(N2CCN(C3CCN(Cc4ccc(Cl)c(F)c4)CC3)CC2)c(Cl)c1 [compound 133]	25 to 100
O=C(NCc1ccc(Cl)cc1F)c1cnc(N2CCN(C3CCN(Cc4ccc(F)cc4)CC3)CC2)c(Cl)c1 [compound 134]	25 to 100
O=C(NCc1ccc(Cl)c(Cl)c1)c1cnc(N2CCN(C3CCN(Cc4ccc(F)cc4)CC3)CC2)c(Cl)c1 [compound 135]	25 to 100
O=C(NCc1ccc(Br)cc1)c1cnc(N2CCN(C3CCN(Cc4ccc(Cl)cc4)CC3)CC2)c(Cl)c1 [compound 136]	25 to 100
COc1ccc(CN2CCC(N3CCN(c4ncc(C(=O)NCc5ccc(Br)cc5)cc4Cl)CC3)CC2)cc1 [compound 137]	25 to 100
CNC(=O)c1cnc(N2CCN(C3CCN(Cc4ccc(Cl)cc4)CC3)CC2C)c(Cl)c1 (stereo not drawn) [compound 138]	25 to 100

Reference: US7776862B2, “Pyridyl and phenyl substituted piperazine-piperidines with CXCR3 antagonist activity” (Schering Corporation, priority 2005, dated 2010)
